Two substances from US8252557B2, “Peptide-containing culture medium for culturing animal cell” (Chugai Seiyaku Kabushiki Kaisha, priority 2008, dated 2012) can be followed below.

The test system of the assay is humanized IgG (anti-glypican-3 antibody)-producing CHO cell line. In words: Antibody-producing fed-batch culture, CHO cell line transfected with antibody gene. Type of assay: cell-based. The note with it: for concentration of lactic acid during culture: compared to fed-batch medium not containing the peptide; for antibody concentration after the 14-day culture: fed day 3-14 at 1.0 g/hr per L, control about 1.6 g/L; for antibody concentration higher than control: peptide-containing fed-batch medium vs fed-batch medium without peptide, day 14. On the procedure: (§1) The initial culture medium was placed in a jar-type cell culture system, and then the CHO cell line was added thereto into a concentration of 2×10^5 cells/mL and was cultured under the conditions of 37° C. and 10% CO2. During the culture period of 14 days, a pH level of not lower than 7.0 and a dissolved oxygen level of 40% were automatically maintained. The fed-batch medium was continuously fed from the 3rd day to the 14th day of the culture at a constant flow rate (1.0 g/hr for 1 L of the initial culture medium). The culture medium was sampled at the start of the culture and on the 3rd, 5th, 7th, 10th, 12th, and 14th days. The number of viable cells in each sampled culture solution was counted by trypan blue staining. The antibody concentration in the centrifuged supernatant of each culture solution was measured by affinity chromatography using protein A, and the concentration of lactic acid was measured by an immobilized enzyme process.
as §1, with “concentration” for “number”, “the produced” for “viable cells in each sampled culture solution was counted by trypan blue staining. The”, “antibody” for “antibody concentration”, “the” for “the centrifuged”, “sample” for “solution”, “A; the survival rate was measured by trypan blue staining;” for “A,”

[1] abbreviates: fed-batch medium containing 50 mM of the peptide.

Turning to Cys-Tyr [dipeptide], the “concentration of lactic acid during culture” value is on record as “relatively low levels from the 5th day to the 10th day” and the “antibody concentration higher than control” value was “about 25%”. Moreover, the “antibody concentration after the 14-day culture” value under setting [1] was “about 2.0 g/L”.

Take Cys-Tyr-Ser [tripeptide]: the “concentration of lactic acid during culture” value was “relatively low levels from the 3rd day to the 10th day” and the “antibody concentration higher than control” value was “about 30%”. Further, where the note is “fed-batch medium containing 25 mM of the tripeptide”, the “antibody concentration after the 14-day culture” value is “about 2.1 g/L”. The “antibody concentration after the 14-day culture” value under setting [1] was “about 2.1 g/L”.
